Bounds are passed on as bounds.

The values that follow come from ChEMBL document CHEMBL5465560, “Selectivity Literature for EUbOPEN Chemogenomic Library” (2024).

Assay [1] concerns the target T1, Eukaryotic translation initiation factor 2-alpha kinase 3 (Homo sapiens) (UniProt Q9NZJ5).
T1 sequence (whole entry): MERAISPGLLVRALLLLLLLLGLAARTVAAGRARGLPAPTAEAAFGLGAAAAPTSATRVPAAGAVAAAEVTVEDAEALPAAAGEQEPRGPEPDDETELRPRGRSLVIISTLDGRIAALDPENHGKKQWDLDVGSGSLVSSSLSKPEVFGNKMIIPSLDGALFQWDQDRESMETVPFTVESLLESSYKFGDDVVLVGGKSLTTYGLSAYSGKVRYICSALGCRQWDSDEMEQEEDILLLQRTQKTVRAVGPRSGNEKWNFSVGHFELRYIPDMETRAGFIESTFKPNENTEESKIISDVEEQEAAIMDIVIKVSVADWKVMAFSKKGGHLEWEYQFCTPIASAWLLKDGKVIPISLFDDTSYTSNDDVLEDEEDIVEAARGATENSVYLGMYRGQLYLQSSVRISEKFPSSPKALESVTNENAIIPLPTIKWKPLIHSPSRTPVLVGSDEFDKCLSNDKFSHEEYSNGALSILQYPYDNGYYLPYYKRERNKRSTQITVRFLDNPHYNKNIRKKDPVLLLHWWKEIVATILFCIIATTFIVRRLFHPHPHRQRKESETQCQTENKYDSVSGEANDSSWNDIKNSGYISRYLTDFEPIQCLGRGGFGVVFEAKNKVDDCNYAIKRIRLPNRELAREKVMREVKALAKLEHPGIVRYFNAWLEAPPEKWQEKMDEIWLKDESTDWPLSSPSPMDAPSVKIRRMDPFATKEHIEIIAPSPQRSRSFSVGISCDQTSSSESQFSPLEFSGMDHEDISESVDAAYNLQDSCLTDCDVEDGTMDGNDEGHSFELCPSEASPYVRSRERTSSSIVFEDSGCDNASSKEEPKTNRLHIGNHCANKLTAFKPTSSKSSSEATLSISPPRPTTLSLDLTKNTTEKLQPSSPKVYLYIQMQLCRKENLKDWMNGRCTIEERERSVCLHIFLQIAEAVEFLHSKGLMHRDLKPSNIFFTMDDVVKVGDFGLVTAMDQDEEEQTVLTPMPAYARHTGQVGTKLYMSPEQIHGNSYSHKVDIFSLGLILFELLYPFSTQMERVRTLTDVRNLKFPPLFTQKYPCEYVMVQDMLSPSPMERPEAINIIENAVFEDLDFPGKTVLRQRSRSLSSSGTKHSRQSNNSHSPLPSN
Kind of assay: Selectivity interaction (Kinase panel (KiNativ target engagement assay in Jurkat cells)) EUB0001635a EIF2AK3. Type of assay: cell-based. Particulars: Selectivity number of off-targets 0.0, Selectivity number of targets 233.0, Source Knowledge https://www.sciencedirect.com/science/article/pii/S2451945619300674?via%3Dihub, at 1 µM.

For assay [2], the system named is T2, Receptor-type tyrosine-protein kinase FLT3 (Homo sapiens), P36888 [D835H].
T2 sequence (whole entry): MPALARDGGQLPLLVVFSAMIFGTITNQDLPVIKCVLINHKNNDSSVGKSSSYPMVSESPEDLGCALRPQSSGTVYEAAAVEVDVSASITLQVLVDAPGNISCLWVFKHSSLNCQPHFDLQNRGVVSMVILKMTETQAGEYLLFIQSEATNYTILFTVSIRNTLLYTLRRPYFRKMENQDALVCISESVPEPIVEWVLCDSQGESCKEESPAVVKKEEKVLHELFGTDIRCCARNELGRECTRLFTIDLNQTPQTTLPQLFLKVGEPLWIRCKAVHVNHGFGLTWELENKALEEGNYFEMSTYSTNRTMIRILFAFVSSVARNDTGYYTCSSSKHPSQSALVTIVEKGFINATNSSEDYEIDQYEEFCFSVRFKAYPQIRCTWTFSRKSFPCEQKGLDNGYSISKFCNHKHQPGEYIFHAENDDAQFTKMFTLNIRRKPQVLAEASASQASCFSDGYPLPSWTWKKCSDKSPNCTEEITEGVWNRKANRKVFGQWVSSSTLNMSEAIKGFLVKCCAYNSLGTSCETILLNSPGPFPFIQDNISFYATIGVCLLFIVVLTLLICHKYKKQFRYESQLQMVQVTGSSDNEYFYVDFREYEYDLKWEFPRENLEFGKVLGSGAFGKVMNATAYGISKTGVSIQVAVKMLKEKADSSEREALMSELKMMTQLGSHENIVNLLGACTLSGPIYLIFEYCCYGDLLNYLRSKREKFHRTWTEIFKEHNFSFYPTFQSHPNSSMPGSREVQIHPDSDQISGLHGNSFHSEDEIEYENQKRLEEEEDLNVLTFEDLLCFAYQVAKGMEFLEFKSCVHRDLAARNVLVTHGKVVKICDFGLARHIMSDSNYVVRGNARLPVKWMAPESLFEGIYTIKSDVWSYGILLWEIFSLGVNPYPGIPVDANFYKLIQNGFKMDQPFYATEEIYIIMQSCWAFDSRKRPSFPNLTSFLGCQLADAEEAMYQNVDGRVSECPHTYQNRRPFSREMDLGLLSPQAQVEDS
Kind of assay: (§1) Selectivity interaction (Ambit KINOMEscan and KiNATiv profiling in Jurkat cells) EUB0000090b FLT3. Particulars: at 1 µM. Type of assay: cell-based.

For assay [3], the system named is Receptor-type tyrosine-protein kinase FLT3 (Homo sapiens), P36888 [UNDEFINED MUTATION]. Described as §1. Type of assay: cell-based. The note with it: at 1 µM.
Assay [4] deals with Cyclin-dependent kinase-like 3 (Homo sapiens) (UniProt Q8IVW4). Description: Selectivity interaction (KinomeScan (DiscoverX)) EUB0000607a CDKL3. Particulars: at 10 µM.
Cyclin-dependent kinase-like 3 (Homo sapiens), sequence (Q8IVW4 whole entry, looked up): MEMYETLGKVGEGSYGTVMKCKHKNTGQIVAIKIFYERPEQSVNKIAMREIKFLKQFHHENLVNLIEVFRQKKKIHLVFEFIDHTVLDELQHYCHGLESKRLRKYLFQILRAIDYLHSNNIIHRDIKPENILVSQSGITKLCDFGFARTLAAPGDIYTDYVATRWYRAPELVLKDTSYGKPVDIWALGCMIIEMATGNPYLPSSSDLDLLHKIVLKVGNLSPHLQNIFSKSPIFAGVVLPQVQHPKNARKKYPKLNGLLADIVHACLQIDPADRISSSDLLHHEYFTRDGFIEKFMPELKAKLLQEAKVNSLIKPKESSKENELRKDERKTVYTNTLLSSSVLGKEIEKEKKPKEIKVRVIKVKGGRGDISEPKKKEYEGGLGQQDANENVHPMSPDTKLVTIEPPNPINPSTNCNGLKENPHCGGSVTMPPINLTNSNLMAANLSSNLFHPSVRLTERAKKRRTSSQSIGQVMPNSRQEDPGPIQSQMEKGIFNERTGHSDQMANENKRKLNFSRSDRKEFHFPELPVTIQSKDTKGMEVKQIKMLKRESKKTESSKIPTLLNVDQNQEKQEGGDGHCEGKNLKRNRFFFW
Assay [5] deals with Protein arginine N-methyltransferase 1 (Homo sapiens, UniProt Q99873). Particulars: at 1 µM.
Protein arginine N-methyltransferase 1, sequence (Q99873 whole entry, looked up): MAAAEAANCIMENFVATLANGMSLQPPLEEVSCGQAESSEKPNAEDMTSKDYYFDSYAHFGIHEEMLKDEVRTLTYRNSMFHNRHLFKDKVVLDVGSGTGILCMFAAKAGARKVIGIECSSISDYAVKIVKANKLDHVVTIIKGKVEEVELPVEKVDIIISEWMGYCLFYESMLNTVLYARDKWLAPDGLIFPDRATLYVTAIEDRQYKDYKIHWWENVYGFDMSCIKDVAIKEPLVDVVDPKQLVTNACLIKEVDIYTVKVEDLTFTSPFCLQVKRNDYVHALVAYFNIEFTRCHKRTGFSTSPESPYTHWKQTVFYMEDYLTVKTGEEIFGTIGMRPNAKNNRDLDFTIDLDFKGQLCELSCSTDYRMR
Assay [6] deals with Calcium/calmodulin-dependent protein kinase kinase 1 (Homo sapiens) (UniProt Q8N5S9). Kind of assay: Selectivity interaction (KinomeScan (DiscoverX)) EUB0001079a CAMKK1. Particulars: at 1 µM.
Calcium/calmodulin-dependent protein kinase kinase 1 (Homo sapiens), sequence (Q8N5S9 whole entry, looked up): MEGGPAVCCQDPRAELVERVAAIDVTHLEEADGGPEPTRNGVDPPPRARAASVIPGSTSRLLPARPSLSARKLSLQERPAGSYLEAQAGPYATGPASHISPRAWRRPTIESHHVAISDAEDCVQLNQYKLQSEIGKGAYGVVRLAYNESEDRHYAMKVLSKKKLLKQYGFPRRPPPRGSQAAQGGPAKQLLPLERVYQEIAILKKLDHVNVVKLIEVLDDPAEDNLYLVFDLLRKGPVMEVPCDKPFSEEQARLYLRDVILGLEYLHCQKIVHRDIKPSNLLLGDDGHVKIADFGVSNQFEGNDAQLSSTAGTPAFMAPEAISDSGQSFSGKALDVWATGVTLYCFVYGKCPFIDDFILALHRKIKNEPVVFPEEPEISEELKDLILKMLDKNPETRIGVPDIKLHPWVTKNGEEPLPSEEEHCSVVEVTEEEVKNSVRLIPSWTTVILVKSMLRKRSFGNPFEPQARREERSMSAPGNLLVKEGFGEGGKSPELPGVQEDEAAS
The target of the next assay is Activated CDC42 kinase 1 (Homo sapiens, UniProt Q07912). Kind of assay: Selectivity interaction (KinaseProfiler screening (Millipore)) EUB0000601a TNK2. Particulars: at 3 µM.
Activated CDC42 kinase 1, sequence (Q07912 whole entry, looked up): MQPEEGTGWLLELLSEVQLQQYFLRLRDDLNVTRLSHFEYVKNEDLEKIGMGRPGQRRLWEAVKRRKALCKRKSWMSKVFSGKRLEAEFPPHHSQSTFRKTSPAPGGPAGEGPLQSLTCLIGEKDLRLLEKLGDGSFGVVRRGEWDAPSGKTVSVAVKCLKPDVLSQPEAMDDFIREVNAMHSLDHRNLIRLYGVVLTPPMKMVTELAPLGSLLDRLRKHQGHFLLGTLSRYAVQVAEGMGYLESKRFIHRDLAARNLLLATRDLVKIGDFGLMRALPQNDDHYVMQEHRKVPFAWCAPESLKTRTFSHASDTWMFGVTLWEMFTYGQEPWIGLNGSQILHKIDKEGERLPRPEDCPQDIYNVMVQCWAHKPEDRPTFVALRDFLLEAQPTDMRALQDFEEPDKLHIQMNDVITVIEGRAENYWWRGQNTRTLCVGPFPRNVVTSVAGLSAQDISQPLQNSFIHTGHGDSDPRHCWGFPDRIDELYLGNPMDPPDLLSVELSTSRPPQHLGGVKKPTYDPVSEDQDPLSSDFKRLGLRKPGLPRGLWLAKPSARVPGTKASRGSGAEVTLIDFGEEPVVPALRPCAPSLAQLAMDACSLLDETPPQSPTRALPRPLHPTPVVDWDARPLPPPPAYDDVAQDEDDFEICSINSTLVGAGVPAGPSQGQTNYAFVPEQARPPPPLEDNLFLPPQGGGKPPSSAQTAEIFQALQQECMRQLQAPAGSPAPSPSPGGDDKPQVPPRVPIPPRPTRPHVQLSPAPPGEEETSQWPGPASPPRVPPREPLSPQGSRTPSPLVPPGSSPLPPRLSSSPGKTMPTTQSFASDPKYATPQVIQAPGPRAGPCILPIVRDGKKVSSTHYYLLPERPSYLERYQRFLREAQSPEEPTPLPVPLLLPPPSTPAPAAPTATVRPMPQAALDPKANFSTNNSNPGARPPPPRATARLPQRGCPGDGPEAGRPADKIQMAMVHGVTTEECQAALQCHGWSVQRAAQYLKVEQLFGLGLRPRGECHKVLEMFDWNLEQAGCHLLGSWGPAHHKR
Assay [7] addresses Platelet-derived growth factor receptor alpha (Homo sapiens, UniProt P16234). Description: Selectivity interaction (KinomeScan (DiscoverX)) EUB0000695a PDGFRA. The note with it: at 100 nM.

Platelet-derived growth factor receptor alpha, sequence (P16234 whole entry): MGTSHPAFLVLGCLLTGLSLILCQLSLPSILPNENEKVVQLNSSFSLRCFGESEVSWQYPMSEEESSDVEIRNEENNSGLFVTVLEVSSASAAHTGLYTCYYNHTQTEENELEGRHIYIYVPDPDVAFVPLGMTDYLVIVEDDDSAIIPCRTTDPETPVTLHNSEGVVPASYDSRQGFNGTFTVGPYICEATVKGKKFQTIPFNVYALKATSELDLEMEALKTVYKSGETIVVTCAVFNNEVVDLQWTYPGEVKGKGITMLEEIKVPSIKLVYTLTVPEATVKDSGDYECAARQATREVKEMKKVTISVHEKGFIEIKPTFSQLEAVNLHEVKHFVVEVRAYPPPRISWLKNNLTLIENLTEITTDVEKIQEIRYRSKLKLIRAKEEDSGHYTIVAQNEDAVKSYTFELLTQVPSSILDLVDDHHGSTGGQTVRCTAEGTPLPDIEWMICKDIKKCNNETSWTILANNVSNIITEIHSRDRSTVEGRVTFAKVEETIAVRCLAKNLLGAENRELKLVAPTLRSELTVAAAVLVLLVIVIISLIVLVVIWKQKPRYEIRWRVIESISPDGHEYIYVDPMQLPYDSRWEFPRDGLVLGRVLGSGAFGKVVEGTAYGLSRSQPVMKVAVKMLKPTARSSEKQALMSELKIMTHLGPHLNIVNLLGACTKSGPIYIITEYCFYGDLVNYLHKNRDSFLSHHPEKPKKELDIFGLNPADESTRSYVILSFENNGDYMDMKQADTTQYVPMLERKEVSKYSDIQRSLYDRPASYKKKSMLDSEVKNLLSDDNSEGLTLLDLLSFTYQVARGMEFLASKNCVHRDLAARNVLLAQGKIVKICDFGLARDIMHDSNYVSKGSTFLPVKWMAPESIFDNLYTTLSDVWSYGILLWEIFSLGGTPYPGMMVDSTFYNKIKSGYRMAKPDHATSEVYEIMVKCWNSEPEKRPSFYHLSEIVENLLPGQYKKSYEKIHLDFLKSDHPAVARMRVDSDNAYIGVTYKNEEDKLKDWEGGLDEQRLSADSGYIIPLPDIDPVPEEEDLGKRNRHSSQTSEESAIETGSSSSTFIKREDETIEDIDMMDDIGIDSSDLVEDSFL

In the case of `C=CC(=O)Nc1ccc(C(=O)Nc2[nH]nc3c2CN(C(=O)N[C@H](CN(C)C)c2ccccc2)C3(C)C)cc1`, in assay [1], the % of engagement is -7.7%.
For `CN(C)C/C=C/C(=O)Nc1ccc(C(=O)N2CCCC(Nc3ncc(Cl)c(-c4c[nH]c5ccccc45)n3)C2)cc1` (stereo not drawn), the figures for the % of control in assay [2] and in assay [3] were 64% and 86%, respectively.
In the case of `CNC(=O)Nc1ccc(-c2nc(N3CC4CCC(C3)O4)c3cnn(C4CCC5(CC4)OCCO5)c3n2)cc1`, the % of control in assay [4] is 95%.
Compound `CNCCN1CCC(c2cc(CN(C)C(=O)c3cccc(Oc4ccccc4)c3)ccn2)CC1` had a % activity in assay [5] of over 90%.
Take `Nc1cnc(N2CCc3cc(S(=O)(=O)Nc4c(F)cc(Cl)cc4F)cc(N4CCCC4=O)c32)nc1` [TP-020n]: the % of control in assay [6] turned out to be 100%.
In the case of `CCc1cc(Nc2nccc(-c3c(-c4ccc(OC)c(C(=O)Nc5c(F)cccc5F)c4)nc4ccccn34)n2)c(OC)cc1N1CCC(N2CCN(S(C)(=O)=O)CC2)CC1`, the % of inhibition on Activated CDC42 kinase 1 turned out to be 34%.
With `Cc1cc(F)c(C(=O)Nc2cccc(-c3nncn3C(C)C)n2)cc1-n1cnc(C2CC2)c1`, the % of control in assay [7] came out at 100%.
